pEC50: −log10 of the molar value. Like-named read-outs stand apart in the source and are kept apart here.
Target: T1, α-7 nicotinic acetylcholine receptor channel expressed in HEK 293 cells (Rattus norvegicus, UniProt Q05941)
T1 construct: expressed in transfected cells
Assay: Ca2+-sensitive fluorescence-based FLIPR assay, α7 nicotinic ACh receptor channel function (agonist)
Format: cell-based
Method: I) α7 Nicotinic Acetycholine Receptor Binding. Membranes were prepared for binding using HEK293 cells stably expressing the rat α7 nicotinic acetycholine receptor (rat α7 nAChR). Cells were homogenized at 4° C. in hypotonic lysis buffer consisting of 10 mM Tris (pH 7.4), 5 mM EDTA and protease inhibitors and centrifuged at 32000×g for 20 minutes. The pellet was washed once in membrane wash buffer consisting of 50 mM Tris (pH 7.4), 1 mM EDTA and protease inhibitors and centrifuged at 32000×g for 20 minutes. This pellet was then resuspended in assay buffer consisting 50 mM KH2PO4 (pH 7.4 at 25° C.), 1 mM EDTA, 0.005% Triton-X 100 and 0.1% (v/v) Sigma Protease Inhibitor Cocktail. Aliquots were then frozen in dry ice/ethanol and kept at −80° C. until the day of the assay. II) A Ca^2+-Sensitive, Fluorescence-Based Assay α-7 for Nicotinic Acetylcholine Receptor Channel Function In Mammalian Cells (“FLIPR”). Summary: Lead compounds are evaluated for agonist activity at […], α3β4, […], and α1β1δ1ε sub-types of nicotinic ACh receptor ion channels expressed in mammalian HEK 293 cells. Agonist potency and efficacy values are determined from kinetic fluorescence Ca^2+ influx measurements made using a 384 well FLIPR (Fluorescence Image Plate Reader). […] In this assay, channel expressing HEK cell lines seeded in 384 well assay plates are loaded with a membrane permeant fluorescent Ca^2+ indicator dye, whose 510 nm green emission signal increases in response to elevation of intracellular Ca^2+ concentration. The basal fluorescence from the cells is monitored in real time, followed by the acute addition of test compounds.
Materials and Methods: Reagents: The acetomethoxy (AM) ester of the Ca^2+ indicator dye Fluo-4 was obtained from InVitrogen, (Carlsbad, Calif.). Acetylcholine and all buffer constituents were purchased from Sigma Chemical Company, St. Louis, Mo. G418 and Minimal Essential Medium were purchased from InVitrogen Life Technologies, Carlsbad, Calif. Fetal bovine serum was purchased from (InVitrogen, Carlsbad, Calif.).
Cell Culture: HEK-293 cells were grown in Minimal Essential Medium containing 10% (v/v) fetal bovine serum at 37° C. in a 5% CO2 incubator. HEK-293 cells stably expressing the ion channels were grown in the same medium with the addition of 500 μg/ml G418.
Ca^2+ flux assays of Ca^2+ channels expressed in HEK-293 cells: HEK-293 cells expressing the ion channels of interest were plated in 384 well, black-walled, clear-bottomed, poly-D-lysine coated plates at a density of ˜20,000 cells/well in 20 μl of Minimal Essential Medium containing 10% (v/v) fetal bovine serum and incubated for 2 days at 29° C. in a 5% CO2 incubator. Prior to assay, cells were loaded with the Fluo-4 AM ester. […] Dye loading was allowed to proceed for 90 minutes at room temperature at which time the dye loading solution was removed and replaced with 40 μl/well of Hanks buffer. Cells loaded with dye were loaded onto a FLIPR384 (Molecular Devices, Sunnyvale, Calif.). Fluo-4 dye was excited using the 488 nm line of an argon laser. Emission was filtered using a 540+/−30 nm bandpass filter. For evaluation of the effects of test compounds using the Ca^2+ flux assay, compounds to be tested were provided in assay ready plates. For nicotinic receptor ion channel expressing cells, the assay was initiated by the addition of 20 μl/well of Hanks buffer containing test compounds. For all assays, data were collected at 1 Hz for 10 seconds (baseline), at which time the compound containing stimulus buffers are added, and further measurements collected at 0.33 Hz for 3 min.
Data Analysis: The statistical robustness of the nicotinic receptor Ca^2+ flux assays is determined from blanks and totals wells. […] The raw fluorescence units data files generated on the FLIPR plate reader are automatically exported and processed by in-house data analysis tools.

[1] = FLIPR α7 activity rating (EC50, nM), Table 1, HEK 293 cells, agonist Ca2+ flux
[2] = FLIPR α7 (EC50, nM), Table 1, HEK 293 cells, agonist Ca2+ flux

T1 sequence (Q05941 23-502): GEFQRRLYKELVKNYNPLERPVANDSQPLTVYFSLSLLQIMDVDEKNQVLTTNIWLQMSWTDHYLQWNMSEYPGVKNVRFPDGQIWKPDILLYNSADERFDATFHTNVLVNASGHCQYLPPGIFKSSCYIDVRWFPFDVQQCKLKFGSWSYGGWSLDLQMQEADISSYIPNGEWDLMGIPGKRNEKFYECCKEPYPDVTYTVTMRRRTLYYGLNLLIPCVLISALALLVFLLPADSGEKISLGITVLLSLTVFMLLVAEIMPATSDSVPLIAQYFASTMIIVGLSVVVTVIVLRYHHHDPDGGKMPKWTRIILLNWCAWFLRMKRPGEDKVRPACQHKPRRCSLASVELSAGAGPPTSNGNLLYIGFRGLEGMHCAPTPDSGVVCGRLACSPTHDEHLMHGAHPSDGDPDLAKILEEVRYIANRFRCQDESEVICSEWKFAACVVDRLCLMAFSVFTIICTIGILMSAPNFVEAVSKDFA

| Compound | EC50 [1] | further results |
| --- | --- | --- |
| Oc1ccc2nc(NC3=NCC4(CN5CCC4CC5)O3)sc2c1 (single isomer, unassigned) [Example 13a] | 100 to 1000 nM |  |
| Oc1ccc2nc(NC3=NCC4(CN5CCC4CC5)O3)sc2c1 (single isomer, unassigned) [Example 13b] | < 100 nM |  |
| C1CCc2sc(NC3=NCC4(CN5CCC4CC5)O3)nc2C1 (single isomer, unassigned) [Example 14b] | 100 to 1000 nM |  |
| CC(C)c1csc(NC2=NCC3(CN4CCC3CC4)O2)n1 (single isomer, unassigned) [Example 15a] | 1000 to 100000 nM | EC50 [2]: 6350 nM |
| CC(C)c1csc(NC2=NCC3(CN4CCC3CC4)O2)n1 (single isomer, unassigned) [Example 15b] | 100 to 1000 nM |  |
| c1csc(NC2=NCC3(CN4CCC3CC4)O2)n1 (single isomer, unassigned) [Example 16a] | 1000 to 100000 nM | EC50 [2]: 3170 nM |
| c1csc(NC2=NCC3(CN4CCC3CC4)O2)n1 (single isomer, unassigned) [Example 16b] | 100 to 1000 nM |  |
| COc1ccc(-c2csc(NC3=NCC4(CN5CCC4CC5)O3)n2)cc1 (single isomer, unassigned) [Example 20a] | 100 to 1000 nM |  |
| COc1ccc(-c2csc(NC3=NCC4(CN5CCC4CC5)O3)n2)cc1 (single isomer, unassigned) [Example 20b] |  | EC50 [2]: 318 nM; pEC50 (read-out: FLIPR α7 activity rating (EC50), Table 1, HEK 293 cells, agonist Ca2+ flux): 6.00 to 7.00 |
| O=C(c1ccc2nc(NC3=NCC4(CN5CCC4CC5)O3)sc2c1)N1CCCC1 (stereo not shown) [Example 3] | 1000 to 100000 nM | pEC50: 5.42 |
| COc1ccc2nc(NC3=NCC4(CN5CCC4CC5)O3)sc2c1 (stereo not shown) [Example 5, N-(6-Methoxybenzo[d]thiazol-2-yl)-4H-1′-azaspiro[oxazole-5,3′-bicyclo[2.2.2]octan]-2-amine] | 100 to 1000 nM |  |
| Cc1cccc2sc(NC3=NCC4(CN5CCC4CC5)O3)nc12 (stereo not shown) [Example 6, N-(4-Methylbenzo[d]thiazol-2-yl)-4H-1′-azaspiro[oxazole-5,3′-bicyclo[2.2.2]octan]-2-amine] | 100 to 1000 nM |  |
| Clc1ccc2nc(NC3=NCC4(CN5CCC4CC5)O3)sc2c1 (stereo not shown) [Example 9, N-(6-Chlorobenzo[d]thiazol-2-yl)-4H-1′-azaspiro[oxazole-5,3′-bicyclo[2.2.2]octan]-2-amine] | 100 to 1000 nM |  |
| Cn1c(NC2=NCC3(CN4CCC3CC4)O2)nc2ccccc21 (stereo not shown) [Example 10, N-(1-methyl-1H-benzo[d]imidazol-2-yl)-4H-1′-azaspiro[oxazole-5,3′-bicyclo[2.2.2]octan]-2-amine] | 100 to 1000 nM |  |
| CCOc1ccc2nc(NC3=NCC4(CN5CCC4CC5)O3)sc2c1 (stereo not shown) [Example 11, N-(6-Ethoxybenzo[d]thiazol-2-yl)-4H-1′-azaspiro[oxazole-5,3′-bicyclo[2.2.2]octan]-2-amine] | 100 to 1000 nM |  |
| Cc1ccc2nc(NC3=NCC4(CN5CCC4CC5)O3)sc2c1 (stereo not shown) [Example 12, N-(6-Methylbenzo[d]thiazol-2-yl)-4H-1′-azaspiro[oxazole-5,3′-bicyclo[2.2.2]octan]-2-amine] | 100 to 1000 nM |  |
| CC(=O)Nc1ccc2nc(NC3=NC[C@@]4(CN5CCC4CC5)O3)sc2c1 [Example 21, (R)—N-(2-(4H-1′-Azaspiro[oxazole-5,3′-bicyclo[2.2.2]octane]-2-ylamino)benzo[d]thiazol-6-yl)acetamide] | < 100 nM |  |

| Compound | EC50 [1] | further results |
| --- | --- | --- |
| COc1ccc2nc(NC3=NC[C@@]4(CN5CCC4CC5)O3)nn2c1 [Example 24, (R)—N-(6-Methoxy-[1,2,4]-triazolo[1,5-a]pyridin-2-yl)-4H-1′-azaspiro[oxazole-5,3′-bicyclo[2.2.2]octan]-2-amine] | < 100 nM |  |
| FC(F)(F)c1cnc(NC2=NC[C@@]3(CN4CCC3CC4)O2)cn1 [Example 25, (R)—N-(5-(Trifluoromethyl)pyrazin-2-yl)-4H-1′-azaspiro[oxazole-5,3′-bicyclo[2.2.2]octan]-2-amine] | 100 to 1000 nM | EC50 [2]: 510 nM |
| Fc1ccc2c(NC3=NC[C@@]4(CN5CCC4CC5)O3)n[nH]c2c1 [Example 26, (R)—N-(6-Fluoro-1H-indazol-3-yl)-4H-1′-azaspiro[oxazole-5,3′-bicyclo[2.2.2]octan]-2-amine] | < 100 nM |  |
| c1ccc(-c2cncc(NC3=NC[C@@]4(CN5CCC4CC5)O3)c2)cc1 [Example 28, (R)—N-(5-Phenylpyridin-3-yl)-4H-1′-azaspiro[oxazole-5,3′-bicyclo[2.2.2]octan]-2-amine] | 1000 to 100000 nM | pEC50: 5.40 |
| c1ccc(-c2cc(NC3=NC[C@@]4(CN5CCC4CC5)O3)ccn2)cc1 [Example 29, (R)—N-(2-Phenylpyridin-4-yl)-4H-1′-azaspiro[oxazole-5,3′-bicyclo[2.2.2]octan]-2-amine] | 100 to 1000 nM |  |
| c1ccc(-c2cccc(NC3=NC[C@@]4(CN5CCC4CC5)O3)n2)cc1 [Example 30, (R)—N-(6-Phenylpyridin-2-yl)-4H-1′-azaspiro[oxazole-5,3′-bicyclo[2.2.2]octan]-2-amine] | 100 to 1000 nM |  |
| Cn1nc(NC2=NC[C@@]3(CN4CCC3CC4)O2)c2ccc(OC(F)F)cc21 [Example 31, (R)—N-(6-(Difluoromethoxy)-1-methyl-1H-indazol-3-yl)-4H-1′-azaspiro[oxazole-5,3′-bicyclo[2.2.2]octan]-2-amine] | 100 to 1000 nM |  |
| FC(F)Oc1ccc2nc(NC3=NC[C@@]4(CN5CCC4CC5)O3)sc2n1 [Example 32, (R)—N-(5-(Difluoromethoxy)thiazolo[5,4-b]pyridin-2-yl)-4H-1′-azaspiro[oxazole-5,3′-bicyclo[2.2.2]octan]-2-amine] | 100 to 1000 nM |  |
| c1nc(N2CCCC2)cnc1NC1=NC[C@@]2(CN3CCC2CC3)O1 [Example 34, (R)—N-(5-(Pyrrolidin-1-yl)pyrazin-2-yl)-4H-1′-azaspiro[oxazole-5,3′-bicyclo[2.2.2]octan]-2-amine] | 1000 to 100000 nM |  |
| O=C1CCCN1c1cnc(NC2=NC[C@@]3(CN4CCC3CC4)O2)cn1 [Example 35, (R)-1-(5-(4H-1′-Azaspiro[oxazole-5,3′-bicyclo[2.2.2]octane]-2-ylamino)pyrazin-2-yl)pyrrolidin-2-one] | 1000 to 100000 nM | pEC50: 5.39 |
| c1cncc(-c2cnc(NC3=NC[C@@]4(CN5CCC4CC5)O3)cn2)c1 [Example 36, (R)—N-(5-(Pyridin-3-yl)pyrazin-2-yl)-4H-1′-azaspiro[oxazole-5,3′-bicyclo[2.2.2]octan]-2-amine] | 100 to 1000 nM |  |
| COc1ccc(-c2cnc(NC3=NC[C@@]4(CN5CCC4CC5)O3)cn2)cn1 [Example 37, (R)—N-(5-(6-Methoxypyridin-3-yl)pyrazin-2-yl)-4H-1′-azaspiro[oxazole-5,3′-bicyclo[2.2.2]octan]-2-amine] | 1000 to 100000 nM |  |
| COc1ccc2nc(NC3=NC[C@@]4(CN5CCC4CC5)O3)cnc2c1 [Example 38, (R)—N-(6-Methoxyquinoxalin-2-yl)-4H-1′-azaspiro[oxazole-5,3′-bicyclo[2.2.2]octan]-2-amine] | < 100 nM |  |
| FC(F)Oc1cnc(NC2=NC[C@@]3(CN4CCC3CC4)O2)nc1 [Example 39, (R)—N-(5-(Difluoromethoxy)pyrimidin-2-yl)-4H-1′-azaspiro[oxazole-5,3′-bicyclo[2.2.2]octan]-2-amine] | < 100 nM |  |
| Cc1cnc(NC2=NC[C@@]3(CN4CCC3CC4)O2)nc1C [Example 40, (R)—N-(4,5-Dimethylpyrimidin-2-yl)-4H-1′-azaspiro[oxazole-5,3′-bicyclo[2.2.2]octan]-2-amine] | < 100 nM |  |
| COc1ccc(-c2cc(NC3=NC[C@@]4(CN5CCC4CC5)O3)ncn2)cc1 [Example 42, (R)—N-(6-(4-Methoxyphenyl)pyrimidin-4-yl)-4H-1′-azaspiro[oxazole-5,3′-bicyclo[2.2.2]octan]-2-amine] | < 100 nM |  |

Source: patent US8309577B2, “Quinuclidine compounds as α-7 nicotinic acetylcholine receptor ligands” (Bristol-Myers Squibb Company, priority 2008, dated 2012)
